According to patent US8993594B2, “Isoquinolin-1(2H)-one derivatives as PARP-1 inhibitors” (Nerviano Medical Sciences S.R.L., priority 2009, dated 2015):
Structures can show the parent of a compound that is named as a salt.

What was measured:
PARP-1 FL = PARP-1 FL (Homo sapiens, UniProt P09874); assay: Fluorescence polarization probe displacement assay; format: binding; details: for DC50: half maximal displacement concentration
Method: (§1) Affinity of the tested compounds and their selectivity with respect to the different PARP isoforms of interest was quantified in a displacement assay.
(§2) In all of the experiments, the polarization signal was measured using a Saphire2 plate reader (Tecan). Data analysis was performed using Dynafit software. In particular, titration data were fitted to the following equilibria: Enzyme+probe <==> Complex Enzyme-probe, while displacement data were fitted to the following equilibria: Enzyme+probe <==> Complex Enzyme-probe, Enzyme+Compound <==> Complex Enzyme-Compound, whereby binding of probe and compound on the enzyme are mutually exclusive (pure competitive mechanism). Displacement data were also fitted using Excel spreadsheet (Microsoft Inc. Seattle, USA) to a four parameter logistic model (4PL), or Hill-Slope model to calculate DC50s where the DC50 value represents the compound concentration at which the polarization signal is diminished by 50% compared to untreated controls.
(§3) In agreement, affinity binding constants (KD) were determined by fitting with a pure competitive mechanism. KD values are the average of three independent experiments.

PARP-2 FL = PARP-2 FL (Homo sapiens, UniProt Q9UGN5); assay: Fluorescence polarization probe displacement assay; format: binding; details: for DC50: compound P1 as the probe
Sequence of PARP-2 FL (Q9UGN5 whole entry): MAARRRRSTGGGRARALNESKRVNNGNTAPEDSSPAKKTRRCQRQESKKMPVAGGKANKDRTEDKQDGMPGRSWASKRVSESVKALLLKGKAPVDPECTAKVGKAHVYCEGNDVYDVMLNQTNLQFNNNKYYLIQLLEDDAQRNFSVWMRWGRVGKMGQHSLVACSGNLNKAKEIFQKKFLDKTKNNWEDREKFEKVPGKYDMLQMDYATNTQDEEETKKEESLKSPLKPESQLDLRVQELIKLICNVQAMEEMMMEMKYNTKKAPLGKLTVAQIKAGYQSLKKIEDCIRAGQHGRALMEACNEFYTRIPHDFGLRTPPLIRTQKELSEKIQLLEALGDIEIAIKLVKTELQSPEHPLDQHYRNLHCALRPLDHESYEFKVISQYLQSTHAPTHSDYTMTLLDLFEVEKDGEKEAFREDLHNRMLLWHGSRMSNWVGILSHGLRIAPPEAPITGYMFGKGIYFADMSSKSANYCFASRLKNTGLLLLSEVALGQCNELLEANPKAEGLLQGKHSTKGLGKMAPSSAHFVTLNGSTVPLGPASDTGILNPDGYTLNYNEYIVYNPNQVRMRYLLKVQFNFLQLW
Method: as §1, §2, §3

[1] = test system: hydrogen peroxide induced PAR formation in HeLa cells; assay: Cellular PAR assay (inhibition of hydrogen peroxide induced PAR formation); format: cell-based; details: Homo sapiens, 0.1 mM hydrogen peroxide 15 min
Method: Compounds potencies were evaluated by measuring the inhibition of poly (ADP-ribose) (PAR) chains formation as a marker for PARP-1 inhibition.
Cellular activity of PARP-1 inhibitors was assessed by measuring the inhibition of the hydrogen peroxide induced PAR formation in HeLa cells (ECACC). Cellular PAR levels were measured by immunocytochemistry and quantified using an ArrayScan vTi instrument (Cellomics Thermo Scientific).
Studies were performed as follows: 6000 cells/well were seeded in 96 well plates (Perkin Elmer) in MEM/10% FCS and incubated for 24 hours at 37° C., 5% carbon dioxide. Test compounds were then added at the required concentration for 30′. […] Concentration curves were prepared in MEM/10% FCS from compound stocks in DMSO and final DMSO concentration was 0.002% (v/v). Duplicate wells for each concentration point were prepared with a typical highest compound concentration of 20 μM and serial dilution 1:3. […] Non-specific binding sites were blocked by incubating wells for 30 min in PBS containing 5% (w/v) FBS 0.05% tween20. […] After washing further 3 times in PBS, cellular PAR immunoreactivity was assessed using the ArrayScan vTi instrument, with a Zeiss 10×0.5 N.A. objective, and applying the Cytotoxicity.V3 algorithm (Cellomics/Thermo Fisher) with a XF100 filter. At least 10 fields, corresponding to at least 900 cells, were read for each well.
The following formula is used: IC50=Bottom+(Top−Bottom)/(1+10^((Log EC50−X))); X is the logarithm of concentration. IC50 is the response; IC50 starts at Bottom and goes to Top with a sigmoid shape.

[2] = Pharmacokinetics and oral bioavailability in the mouse; format: in vivo
Method: The compounds were formulated in 10% tween 80/dextrose for intravenous bolus administration while oral administrations were performed using the compounds formulated in 0.5% methylcellulose. A single administration at the dose of 10 mg/kg was given and three male animals for each route were used. […] Plasma samples were prepared by plasma proteins precipitation adding 200 µl of methanol to 10 µl of plasma in a 96 well plate. […] The supernatant was considered as final extract and injected onto the LC-MS-MS system (HPLC system: Hewlett Packard 1100 series using Atlantis HILIC Silica 50*2.1 mm 5.0 μM analytical column; MS instrument: Perkin Elmer SCIEX API 2000 and ionization performed with Turbo Ion Spray in positive ion mode). Lower limit of quantification is 5.0 ng/ml, upper limit of quantification is 10000 ng/ml. […] Non-compartmental method (linear trapezoidal rule and linear regression analysis of natural log-transformed plasma concentrations vs. time data) was used. After intravenous dosing, C0 was set equal to C0.083, Absolute bioavailability (F) was calculated from the ratio of average oral to IV (intravenous) dose-normalized plasma AUC (area under curve) values.

Sequence of PARP-1 FL (P09874 whole entry): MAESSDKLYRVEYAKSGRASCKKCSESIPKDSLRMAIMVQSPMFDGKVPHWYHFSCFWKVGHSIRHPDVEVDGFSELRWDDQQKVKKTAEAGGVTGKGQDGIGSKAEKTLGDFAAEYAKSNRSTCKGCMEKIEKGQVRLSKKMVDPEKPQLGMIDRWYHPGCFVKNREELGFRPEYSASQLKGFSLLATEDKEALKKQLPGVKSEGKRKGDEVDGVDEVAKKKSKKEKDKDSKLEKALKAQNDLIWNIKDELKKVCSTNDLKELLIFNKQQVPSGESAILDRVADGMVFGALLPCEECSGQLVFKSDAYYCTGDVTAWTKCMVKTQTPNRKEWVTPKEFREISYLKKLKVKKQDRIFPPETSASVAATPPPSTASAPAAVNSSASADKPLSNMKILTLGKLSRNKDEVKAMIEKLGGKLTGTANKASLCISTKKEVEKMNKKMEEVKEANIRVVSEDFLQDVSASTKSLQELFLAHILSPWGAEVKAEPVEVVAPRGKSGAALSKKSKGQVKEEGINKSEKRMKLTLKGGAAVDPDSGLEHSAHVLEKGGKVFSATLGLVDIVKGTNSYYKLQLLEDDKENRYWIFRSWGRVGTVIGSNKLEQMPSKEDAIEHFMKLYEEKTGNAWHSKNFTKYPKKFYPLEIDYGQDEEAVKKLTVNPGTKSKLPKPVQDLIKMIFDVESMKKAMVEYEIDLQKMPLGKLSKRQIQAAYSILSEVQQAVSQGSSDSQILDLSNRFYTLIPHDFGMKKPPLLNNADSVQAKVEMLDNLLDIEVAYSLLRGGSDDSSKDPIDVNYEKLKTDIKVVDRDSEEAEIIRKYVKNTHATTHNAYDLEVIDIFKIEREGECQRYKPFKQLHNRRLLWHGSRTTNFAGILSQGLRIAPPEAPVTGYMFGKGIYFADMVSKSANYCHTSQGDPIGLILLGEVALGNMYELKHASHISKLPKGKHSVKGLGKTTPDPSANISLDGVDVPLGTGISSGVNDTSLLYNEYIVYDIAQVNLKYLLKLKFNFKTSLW

NCCOc1c(-c2ccccc2)[nH]c(=O)c2ccccc12 [Compound 1, 4-(2-Amino-ethoxy)-3-phenyl-2H-isoquinolin-1-one hydrochloride]
Kd (PARP-1 FL): < 0.03 µM
DC50 (PARP-1 FL): < 0.25 µM
Kd (PARP-2 FL): 3.07 µM
DC50 (PARP-2 FL): 2.89 µM
IC50 [1]: 0.79 µM

CC(=O)NCCOc1c(-c2ccccc2)[nH]c(=O)c2ccccc12 [Compound 2, N-[2-(1-Oxo-3-phenyl-1,2-dihydro-isoquinolin-4-yloxy)-ethyl]-acetamide]
Kd (PARP-1 FL): 0.2 µM
DC50 (PARP-1 FL): 0.32 µM
Kd (PARP-2 FL): 6.28 µM
IC50 [1]: 6.72 µM

NCCCOc1c(-c2ccccc2)[nH]c(=O)c2ccccc12 [Compound 3, 4-(3-Amino-propoxy)-3-phenyl-2H-isoquinolin-1-one hydrochloride]
Kd (PARP-1 FL): < 0.03 µM
DC50 (PARP-1 FL): < 0.25 µM
Kd (PARP-2 FL): 3.92 µM
DC50 (PARP-2 FL): 4.1 µM
IC50 [1]: 3.26 µM

NC(=O)c1cccc(N)c1 [Compound 3-AB, 3-aminobenzamide, reference compound]
Displacement of the probe (compound P1 or compound P3) (PARP-1 FL; from all of the tested PARP isoforms): fully displaced

CC(=O)NCCCOc1c(-c2ccccc2)[nH]c(=O)c2ccccc12 [Compound 4, N-[3-(1-Oxo-3-phenyl-1,2-dihydro-isoquinolin-4-yloxy)-propyl]-acetamide]
Kd (PARP-1 FL): 0.19 µM
DC50 (PARP-1 FL): 0.31 µM
Kd (PARP-2 FL): 0.95 µM
DC50 (PARP-2 FL): 0.91 µM

O=c1[nH]c(-c2ccccc2)c(OCCCN2CCCCC2)c2ccccc12 [Compound 5, 3-Phenyl-4-(3-piperidin-1-yl-propoxy)-2H-isoquinolin-1-one trifluoroacetate]
Kd (PARP-1 FL): < 0.03 µM
DC50 (PARP-1 FL): < 0.25 µM
Kd (PARP-2 FL): 4.59 µM
DC50 (PARP-2 FL): 4.34 µM
IC50 [1]: 1.44 µM

O=c1[nH]c(-c2ccccc2)c(OCCN2CCNCC2)c2ccccc12 [Compound 6, 3-Phenyl-4-(2-piperazin-1-yl-ethoxy)-2H-isoquinolin-1-one di-hydrochloride]
Kd (PARP-1 FL): < 0.03 µM
DC50 (PARP-1 FL): < 0.25 µM
Kd (PARP-2 FL): > 10 µM
DC50 (PARP-2 FL): > 10 µM
IC50 [1]: 0.86 µM

CC(=O)N1CCN(CCOc2c(-c3ccccc3)[nH]c(=O)c3ccccc23)CC1 [Compound 7, 4-[2-(4-Acetyl-piperazin-1-yl)-ethoxy]-3-phenyl-2H-isoquinolin-1-one]
Kd (PARP-1 FL): < 0.03 µM
DC50 (PARP-1 FL): < 0.25 µM
Kd (PARP-2 FL): > 10 µM
DC50 (PARP-2 FL): > 10 µM

O=C(NCCCOc1c(-c2ccccc2)[nH]c(=O)c2ccccc12)c1ccccc1 [Compound 8, N-[3-(1-Oxo-3-phenyl-1,2-dihydro-isoquinolin-4-yloxy)-propyl]benzamide]
DC50 (PARP-1 FL): 0.82 µM
DC50 (PARP-2 FL): 4.29 µM

COc1cccc(-c2[nH]c(=O)c3ccccc3c2OCCN2CCCCC2)c1 [Compound 9, 3-(3-Methoxy-phenyl)-4-(2-piperidin-1-yl-ethoxy)-2H-isoquinolin-1-one]
DC50 (PARP-1 FL): 0.37 µM
DC50 (PARP-2 FL): 0.86 µM

COc1cccc(-c2[nH]c(=O)c3ccccc3c2OCCCN2CCCCC2)c1 [Compound 10, 3-(3-Methoxy-phenyl)-4-(3-piperidin-1-yl-propoxy)-2H-isoquinolin-1-one]
Kd (PARP-1 FL): 0.05 µM
DC50 (PARP-1 FL): 0.35 µM
Kd (PARP-2 FL): 4.39 µM
IC50 [1]: 0.33 µM

CNCCCOc1c(-c2ccccc2)[nH]c(=O)c2ccccc12.Cl [Compound 12, 4-(3-Methylamino-propoxy)-3-phenyl-2H-isoquinolin-1-one hydrochloride]
F on AUC ([2]; 10 mg/kg, ratio of oral to IV dose-normalized plasma AUC): 17%
clearance ([2]; male, Balb Nu/Nu, plasma, 10 mg/kg intravenous bolus, mean value, read-out: CL(IV bolus)): 177 mL/min/kg
Vd ([2]; male, Balb Nu/Nu, plasma, 10 mg/kg intravenous bolus, mean value, read-out: Vdss (IV bolus)): 3.3 L/kg
AUC ([2]; male, Balb Nu/Nu, plasma, 10 mg/kg oral, mean value): 0.52 µM·h
half-life ([2]; male, Balb Nu/Nu, plasma, 10 mg/kg oral, mean value, read-out: T½ (oral) (converted)): 1.19 h
Kd (PARP-1 FL): 0.05 µM
DC50 (PARP-1 FL): < 0.25 µM
Kd (PARP-2 FL): 1.65 µM
DC50 (PARP-2 FL): 2.91 µM
IC50 [1]: 0.42 µM

O=c1[nH]c(-c2ccccc2)c(OCCCN2CCNCC2)c2ccccc12 [Compound 14, 3-Phenyl-4-(3-piperazin-1-yl-propoxy)-2H-isoquinolin-1-one di-hydrochloride]
Kd (PARP-1 FL): < 0.03 µM
DC50 (PARP-1 FL): < 0.25 µM
Kd (PARP-2 FL): 6.13 µM
DC50 (PARP-2 FL): 4.29 µM
IC50 [1]: 4.2 µM

CNCCOc1c(-c2ccccc2)[nH]c(=O)c2ccccc12 [Compound 16, 4-(2-Methylamino-ethoxy)-3-phenyl-2H-isoquinolin-1-one]
Kd (PARP-1 FL): < 0.03 µM
DC50 (PARP-1 FL): < 0.25 µM
Kd (PARP-2 FL): 2.44 µM
IC50 [1]: 0.48 µM

CN(C)CCOc1c(-c2ccccc2)[nH]c(=O)c2ccccc12 [Compound 17, 4-(2-Dimethylamino-ethoxy)-3-phenyl-2H-isoquinolin-1-one]
Kd (PARP-1 FL): < 0.03 µM
DC50 (PARP-1 FL): < 0.25 µM
Kd (PARP-2 FL): 1.01 µM
DC50 (PARP-2 FL): 3.28 µM
IC50 [1]: 0.34 µM

CCN(CC)CCCOc1c(-c2ccccc2)[nH]c(=O)c2ccccc12 [Compound 18, 4-(3-Diethylamino-propoxy)-3-phenyl-2H-isoquinolin-1-one hydrochloride]
Kd (PARP-1 FL): < 0.03 µM
DC50 (PARP-1 FL): < 0.25 µM
Kd (PARP-2 FL): 8.65 µM
IC50 [1]: 0.85 µM

CN1CCN(CCOc2c(-c3ccccc3)[nH]c(=O)c3ccccc23)CC1 [Compound 19, 4-[2-(4-Methyl-piperazin-1-yl)-ethoxy]-3-phenyl-2H-isoquinolin-1-one di hydrochloride]
Kd (PARP-1 FL): < 0.03 µM
DC50 (PARP-1 FL): < 0.25 µM
Kd (PARP-2 FL): 7.29 µM

CN1CCN(CCCOc2c(-c3ccccc3)[nH]c(=O)c3ccccc23)CC1 [Compound 20, 4-[3-(4-Methyl-piperazin-1-yl)-propoxy]-3-phenyl-2H-isoquinolin-1-one di hydrochloride]
Kd (PARP-1 FL): 0.05 µM
DC50 (PARP-1 FL): < 0.25 µM
Kd (PARP-2 FL): 5.35 µM
DC50 (PARP-2 FL): 5.52 µM
IC50 [1]: 6.5 µM

O=c1[nH]c(-c2ccccc2)c(OCCCN2CCCC2)c2ccccc12 [Compound 21, 3-Phenyl-4-(3-pyrrolidin-1-yl-propoxy)-2H-isoquinolin-1-one]
Kd (PARP-1 FL): 0.04 µM
DC50 (PARP-1 FL): < 0.25 µM
Kd (PARP-2 FL): 1.36 µM
DC50 (PARP-2 FL): 1.58 µM
IC50 [1]: 8.3 µM

NCCCCOc1c(-c2ccccc2)[nH]c(=O)c2ccccc12 [Compound 22, 4-(4-Amino-butoxy)-3-phenyl-2H-isoquinolin-1-one hydrochloride]
Kd (PARP-1 FL): < 0.03 µM
DC50 (PARP-1 FL): < 0.25 µM
Kd (PARP-2 FL): 1.34 µM
DC50 (PARP-2 FL): 4.08 µM
IC50 [1]: 9.5 µM

O=c1[nH]c(-c2ccccc2)c(OCCCN2CCCCC2)c2ccc(Cl)cc12 [Compound 37, 7-Chloro-3-phenyl-4-(3-piperidin-1-yl-propoxy)-2H-isoquinolin-1-one]
DC50 (PARP-1 FL): < 0.25 µM
IC50 [1]: 0.62 µM

O=c1[nH]c(-c2ccccc2)c(OCCCN2CCCCC2)c2ccc(F)cc12 [Compound 38, 7-Fluoro-3-phenyl-4-(3-piperidin-1-yl-propoxy)-2H-isoquinolin-1-one]
DC50 (PARP-1 FL): < 0.25 µM
DC50 (PARP-2 FL): 3.78 µM
IC50 [1]: 0.3 µM
